How the values were obtained:
[1] = Lu^3+ complex of macropa; cited from earlier work
[2] = Lu^3+ titration with macropa (UV, pH 7.4); type: physicochemical; conditions: pH 7.4, MOPS buffer, RT
Experimental: (§1) La^3+ and Lu^3+ Titrations with Macropa. The pH of a 10 mM 3-(N-morpholino)propanesulfonic acid (MOPS) buffer was adjusted to 7.4 using aqueous NMe4OH. The ionic strength was set at 100 mM using NMe4Cl. Stock solutions of LaCl3.6.8H2O (40 mM) and LuCl3.6H2O (21 mM) were prepared in 1 mM HCl. A stock solution of H2macropa.2HCl.4H2O (8.8 mM) was prepared in MOPS buffer. From these stock solutions, titration solutions containing macropa (100 μM) and either LaCl3 or LuCl3 were prepared in MOPS. Each metal ion titration was carried out at RT by adding 5-10 μL aliquots of titrant to a cuvette containing 3000 μL of macropa (100 μM) in MOPS. Each sample was allowed to equilibrate for 5 min following every addition before a spectrum was acquired. Complexation of the metal ion was monitored by the decrease in absorbance at 268 nm, the λmax of macropa. Titrant was added until no further spectral changes were detected.

[3] = La^3+ complex of macropa; cited from earlier work
[4] = La^3+ titration with macropa (UV, pH 7.4); type: physicochemical; conditions: pH 7.4, MOPS buffer, RT
Experimental: as §1

SMILES: O=C(O)c1cccc(CN2CCOCCOCCN(Cc3cccc(C(=O)O)n3)CCOCCOCC2)n1 [macropa, N,N′-bis[(6-carboxy-2-pyridil)methyl]-4,13-diaza-18-crown-6]
- stability constant log KLuL [1]: 8.25
- affinity of Lu^3+ for macropa by titration [2]: high affinity
- stability constant log KLaL [3]: 14.99
- affinity of La^3+ for macropa by titration [4]: high affinity
